Legend:
[1] = tested on: Candida albicans; conditions: ketoconazole 70 mg/kg (d-1-6, p.o.) alone
Method: Female Balb/c mice (15/group) were infected intravenously with Candida albicans (10^6 cfu/mouse) (day 0). Three groups were formed: group 1 was treated with physiological saline solution, and group 2 received 70 mg/kg ketoconazole orally on 7 consecutive days (days -1-6). Group 3 received 10 intraperitoneal injections of 2 mg/kg test substance on days 3-30 (every 3rd day) in addition to ketoconazole. The number of animals which died was recorded each day, and the time at which 50% of the animals in each group had died (T50) was determined.

[2] = tested on: DTH reaction (SRBC); test: Stimulation of the DTH reaction, relative to the compound from Example 7; type: in vivo, NMRI mice; conditions: 1 × i.p. day 0, relative to Example 7 = 100%
Method: Either 10^6 or 10^9 red blood cells from sheep were administered intravenously to each animal in groups of 5 female NMRI mice weighing 18-20 g. Sheep erythrocytes are regarded in immunology as a standard test substance (antigen) for the induction of cellular and humoral immune reactions. In particular, this test provides information about the functioning of the T-cell-dependent component (T-helper cells) of the immune system. The test substance obtained as in exemplary embodiment 7 ([2-(3-carboxy-1-propylthio)-4 -methyl-1,3-thiazol-5-yl]acetic acid) was administered intraperitoneally and perorally, respectively, […], each animal received 2×10^8 sheep erythrocytes injected into the underside of the foot and, 24 hours later, the swelling of the foot was measured. The foot swelling is induced by a skin reaction of the delayed type (delayed type hypersensitivity, DTH) and is, as is known to the expert, a measure of the cellular immune response (Collins, F. M. and Mackaness, G. B., J. Immunol. 101, 830-845, 1968). The results compiled in Table 1 illustraste that there is an increase in the cellular immune response owing to the administration of the subst nce obtained according to the invention, for example after imnunization with 10^6 or 10^9 sheep erythrocytes. An optimum stimulation can be observed in this experimental design on administration of 20-40 mg/kg test substance.
NMRI mice were treated with the substances according to the invention as described in experiment 1.
The DTH reaction was checked as a test to determine the immunostimulation.
It can be seen from the table that the DTH reaction in the animals pretreated with the test substances is more pronounced than in the corresponding control animals.

[3] = tested on: macrophages; test: Stimulation of macrophage activity (exocytosis / lysosomal enzyme activity), relative to the compound from Example 7; type: in vivo, NMRI mice; conditions: 100 mg/kg, 1 × i.p. day 0; relative to Example 7 = 100%
Method: (§1) This entailed investigation of the effect of the test substance obtained as in exemplary embodiment 7 on the stimulation of peritoneal macrophages in 6-8 week old NMRI mice. Female mice received the test substance in parenteral or oral doses of 25 mg/kg, 50 mg/kg, 100 mg/kg and 200 mg/kg. Buffered saline solution was administered to a control group. The mice were sacrificed three days after the injections, and the peritoneal macrophages of the animals were examined for their state of activation. The secretion of the lysosomal enzymes (β-galactosidase, β-glucuronidase and N-acetyl-β-D-glucosaminidase) was determined as one measure of macrophage activation. […] The level of oxidative metabolism in macrophages is taken as another measure of their state of activation. This activity is measured with the assistance of a biolumate by determination of the chemiluminescence.
(§2) For this purpose, either 3×10^6 macrophages were cultured with 1 ml of TC 199 culture medium in Petri dishes of diameter 30 mm or 10^6 macrophages were cultured with 100 μl of medium in round-bottomed polyethylene tubes (for determination of the chemiluminescence), with 5% CO2 and at 37° C.
(§3) After incubation for one hour, the cultures were washed to remove floating cells. The chemiluminescence (tube culture) was then determined directly, whereas the Petri dishes were incubated for a further 24 hours at 37° C. and then the enzyme and pinocytosis activities in the cultures were determined.
(§4) NMRI mice were treated with the compounds according to the invention as described in experiment 2.
(§5) The macrophage function (chemiluminescence and enzyme activity) was checked as a test to determine the immunostimulation.
(§6) It can be seen from the table that in comparison with macrophages from untreated animals, the chemiluminescence reaction of these cells was also greatly stimulated by all the test substances, and their content of lysosomal enzymes was markedly raised.

[4] = tested on: macrophages; test: Stimulation of macrophage activity (chemiluminescence), relative to the compound from Example 7; type: in vivo, NMRI mice; conditions: 100 mg/kg, 1 × i.p. day 0; relative to Example 7 = 100%
Method: as §1, §2, §3, §4, §5, §6

| Structure (SMILES) | T50 (time at which 50% of the animals had died) [1] [days] | DTH reaction (SRBC), relative activity ([2]; 20 mg/kg) [%] | Macrophage activity: Exocytosis, relative activity [3] [%] | Macrophage activity: Chemiluminescence, relative activity [4] [%] | DTH reaction (SRBC), relative activity ([2]; 100 mg/kg) [%] |
| --- | --- | --- | --- | --- | --- |
| CC(=O)N1CCN(c2ccc(OCC3COC(Cn4ccnc4)(c4ccc(Cl)cc4Cl)O3)cc2)CC1 (centres unmarked) [Ketoconazole, ketoconazole] | 18 |  |  |  |  |
| O=C(O)CCCSc1nnc(SCCCC(=O)O)s1 [Example 27, 2,5-Di(3-carboxy-1-propylthio)-1,3,4-thiadiazole] |  | 144 | 258 | 22 |  |
| O=C(O)CSc1scnc1C(=O)O [Example 15, 5-Carboxymethylthio-1,3-thiazol-4-ylcarboxylic acid] |  |  | 172 | 49 |  |
| O=C(O)CSc1nnc(SCC(=O)O)s1 [Example 25, 2,5-Dicarboxymethylthio-1,3,4-thiadiazole] |  |  | 186 | 26 | 115 |
| O=C(O)CSc1nc(O)nn1-c1ccccc1 [Example 24, 1-Phenyl-3-hydroxy-1,2,4-triazol-5-ylmercaptoacetic acid] |  |  | 218 | 57 | 115 |
| CSc1nc(C)c(CC(=O)O)s1 [Example 1, 2-Methylmercapto-4-methyl-1,3-thiazol-5-ylacetic acid] |  |  | 124 | 29 |  |
| Cc1nc(SCCCC(=O)O)sc1C(=O)O [Example 39] |  |  | 148 | 35 | 210 |

Source: patent publication US4762848A, “1,3-thiazoles and their use as immunomodulators” (Hoechst Aktiengesellschaft, priority 1985, dated 1988)
